A value given as a limit tells only on which side of the number the result lay.

The target of one experiment is T1, BCR-NTRK1 BaF3 cells (Homo sapiens, UniProt P04629).
T1 construct: fused on or other part: P11274 (Breakpoint cluster region protein)
The experiment in a line: BaF3 BCR-NTRK1 cell proliferation assay (ATPlite). As to conditions: read-out: Inhibition of Cell Proliferation IC50, BCR/BaF3 TrkA. Format: cell-based. Here is the method:
Compounds are assessed in a variety of cell based assays. For example BaF3 cells engineered with any of BCR-FMS, BCR-KIT, BCR-FLT3, BCR-NTRK1, BCR-NTRK2, and BCR-NTRK3, are used in cell proliferation assays to assess inhibitory activity of Fms, Kit, Flt-3, TrkA, TrkB, and TrkC, respectively. An MV-4-11 (leukemia) cell proliferation assay is used to assess inhibitory activity in Flt-3, and SKNSH (human neuroblastoma) cell proliferation assay is used to assess efficacy of Fms/Trk inhibitors. Additional cells may be assayed similarly to assess the efficacy of Fms/Trk inhibitors, such as MiaPaCa (human pancreatic cancer) and Capan-1 (human pancreatic carcinoma) cells. Reagent and assay conditions are as follows: • BaF3 cells: • Maintained in RPMI containing 10% FBS, 1% PenStrep, 1% NEAA, and 1% L-Glutamine, supplemented with 1 mg/mL G418 and 5% WEHI-CM (or recombinant murine IL-3). • Confluent cells are split 1:50 to 1:100 every 3-4 days. • MV-4-11 cells: • Maintained in Iscove's Modified Dulbecco's Medium containing 10% FBS. • Confluent cells are split 1:4 every 3-4 days. • SKNSH cells: RPMI containing 10% FBS. On day 1, cells are counted, then centrifuged in a conical tube for 5 minutes at 1000 rpm. The supernatant is removed and cells are re-suspended as follows: • BaF3: resuspend in growth media +1 mg/mL G418 (without WEHFIL-3) to 2×10^5 cells/mL. • MV-4-11: resuspend in growth media to 5×10^5 cells/mL. • SKNSH: resuspend in growth media to 2×10^4 cells/mL. The cells are plated (50 μL, 150 μL for SKNSH cells) in each well of a 96-well dish (Corning 3610) and incubated at 37° C. in 5% CO2 overnight, cells plated to a final concentration of cells as follows: • BaF3: 10,000 cells per well. • MV-4-11: 25,000 cells per well. • SKNSH: 3,000 cells per well. On day 2, compound at a maximum concentration of 5 mM is serially diluted 1:3 for a total of 8 point titration with DMSO as a control. A 1 μL aliquot of each dilution point is added to 249 μL growth media and 50 μL is added to a well containing cells, providing 10 μM compound for the maximum concentration point. The cells are incubated for 3 days at 37° C. in 5% CO2. For SKNSH cells, a 0.75 μL aliquot of appropriate dilution in DMSO is added to 150 μL of cells. On day 5, ATPlite 1 step Luminescence Assay System (Perkin Elmer #6016739) is brought to room temperature along with the cell cultures. ATPlite is added to each well as follows: • BaF3: 25 μL per well. • MV-4-11: 40 μL per well. • SKNSH: 20 μL per well. The cells are incubated at room temperature for 10 minutes, then luminescence is read on Safire reader. The measured luminescence correlates directly with cell number, such that the reading as a function of compound concentration is used to determine the IC50 value.
It is understood that the results of these assays may vary as assay conditions are varied. Inhibition levels determined under the conditions described herein represent a relative activity for the compounds tested under the specific conditions employed. The cell based assays are likely to show variability due to the complexity of the system and the sensitivity thereof to any changes in the assay conditions. […] Results for compounds that are tested and show substantially no inhibition below the highest tested concentration are represented as “-” in the tables below. In some instances, the compounds were not tested in all of the assays, or assay results were not valid, as indicated by NA in the tables below.

For a further experiment, the target named is CYP2C19 (Homo sapiens, UniProt P33261). Description: CYP2C19 inhibition (fluorescent substrate CEC). The settings on record: read-out: Cyp IC50 2C19. Format: in vitro ADME. Here is the method:
CYP (Cytochrome P450) enzymes are the major drug metabolizing enzymes present in the liver. The inhibition of CYP enzyme activity (IC50) for each of CYP1A2, CYP2C19, CYP2C9, CYP2D6, CYP3A4(BFC) and CYP3A4(BQ) is determined for compounds, where inhibition of metabolism of a known substrate leads to a decrease in the fluorescence of the metabolized product. The fluorescence of the product is monitored as a function of compound concentration. Compounds are dissolved in DMSO to a concentration of 100 mM. These are diluted 1 μL into 82 μL of acetonitrile. An 11 μL aliquot of this solution is then added to 204 μL of cofactor mix (1.3% NADPH Regeneration system Solution A, 1.04% NADPH Regeneration system Solution B from BD Biosciences, 5% acetonitrile and 0.05% DMSO). These are then serially diluted 1:1 (160 μL to 160 μL co-factor mix) for a total of 10 points. A 10 μL aliquot of this final mixture is dispensed into 384 well assay plates and incubated for 10 minutes at 37° C. […] Assay plates are incubated at 37° C. (CYP1A2-15 min; CYP2C9-45 min; CYP2C19, 2D6 and 3A4-30 min) and read in a Tecan Safire 2 plate reader (CYP1A2, 2C19 and 3A4 409 ex/460 em; CYP2C9 and 2D6 409 ex/530 em). The signal versus compound concentration is used to determine the IC50. The enzymes and substrates for this assay are obtained from BD Biosciences.

T1 sequence (P04629 510-781): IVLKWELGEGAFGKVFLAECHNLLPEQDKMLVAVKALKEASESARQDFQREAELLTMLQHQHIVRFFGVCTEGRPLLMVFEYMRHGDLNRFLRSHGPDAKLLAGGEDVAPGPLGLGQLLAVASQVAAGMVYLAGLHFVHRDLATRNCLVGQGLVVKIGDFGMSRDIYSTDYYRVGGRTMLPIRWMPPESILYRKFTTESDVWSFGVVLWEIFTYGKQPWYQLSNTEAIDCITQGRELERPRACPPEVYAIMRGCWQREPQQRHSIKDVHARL
Sequence of CYP2C19 (P33261 whole entry): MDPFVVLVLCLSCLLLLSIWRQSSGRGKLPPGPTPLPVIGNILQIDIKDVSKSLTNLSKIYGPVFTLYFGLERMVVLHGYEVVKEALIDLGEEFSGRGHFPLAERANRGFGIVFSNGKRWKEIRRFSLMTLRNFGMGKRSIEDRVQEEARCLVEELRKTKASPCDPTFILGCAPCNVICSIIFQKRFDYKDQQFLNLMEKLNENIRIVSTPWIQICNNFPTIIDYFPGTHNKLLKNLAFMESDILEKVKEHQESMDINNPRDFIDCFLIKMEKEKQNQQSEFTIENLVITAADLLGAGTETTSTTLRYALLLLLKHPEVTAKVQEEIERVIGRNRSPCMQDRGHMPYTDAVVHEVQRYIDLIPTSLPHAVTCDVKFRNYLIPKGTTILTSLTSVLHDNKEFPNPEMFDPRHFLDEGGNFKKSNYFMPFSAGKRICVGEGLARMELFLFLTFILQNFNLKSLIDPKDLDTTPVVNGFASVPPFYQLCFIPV

Regarding `CCc1ccc(Nc2ccc(C(=O)c3c[nH]c4ncnc(NC)c34)c(F)n2)cn1` [Compound P-4124, [6-[(6-ethyl-3-pyridyl)amino]-2-fluoro-3-pyridyl]-[4-(methylamino)-7H-pyrrolo[2,3-d]pyrimidin-5-yl]methanone], the IC50 at BCR-NTRK1 BaF3 cells was less than 0.01 µM; on CYP2C19, less than 5 µM.

`CNc1ncnc2[nH]cc(C(=O)c3ccc(Nc4cncc(OC)c4)nc3F)c12` [Compound P-4108, [2-fluoro-6-[(5-methoxy-3-pyridyl)amino]-3-pyridyl]-[4-(methylamino)-7H-pyrrolo[2,3-d]pyrimidin-5-yl]methanone]: the IC50 on BCR-NTRK1 BaF3 cells was less than 1 µM; at CYP2C19, less than 5 µM.

For the molecule `CCCCNc1ncnc2[nH]cc(C(=O)c3ccc(Nc4ccc(CC)nc4)nc3F)c12` [Compound P-4100, [4-(butylamino)-7H-pyrrolo[2,3-d]pyrimidin-5-yl]-[6-[(6-ethyl-3-pyridyl)amino]-2-fluoro-3-pyridyl]methanone], the values for the IC50 on BCR-NTRK1 BaF3 cells and on CYP2C19 were less than 0.01 µM and less than 5 µM, respectively.

Turning to `CC(C)Nc1ncnc2[nH]cc(C(=O)c3ccc(NC4CCCCC4)nc3F)c12` [Compound P-4101, [6-(cyclohexylamino)-2-fluoro-3-pyridyl]-[4-(isopropylamino)-7H-pyrrolo[2,3-d]pyrimidin-5-yl]methanone], the IC50 at BCR-NTRK1 BaF3 cells is less than 0.1 µM; at CYP2C19, 5 to 10 µM.

As to `O=C(c1ccc(NC2CCC(F)(F)CC2)nc1)c1c[nH]c2ncnc(NC3CC3)c12` [Compound P-4088, [4-(cyclopropylamino)-7H-pyrrolo[2,3-d]pyrimidin-5-yl]-[6-[(4,4-difluorocyclohexyl)amino]-3-pyridyl]methanone], the IC50 at BCR-NTRK1 BaF3 cells was less than 0.1 µM; at CYP2C19, greater than 10 µM.

For `Fc1cc(Cc2c[nH]c3ncnc(NC4CC4)c23)cnc1NC1CCC(F)(F)CC1` [Compound P-4127, N-cyclopropyl-5-[[6-[(4,4-difluorocyclohexyl)amino]-5-fluoro-3-pyridyl]methyl]-7H-pyrrolo[2,3-d]pyrimidin-4-amine], the IC50 at BCR-NTRK1 BaF3 cells was less than 1 µM; at CYP2C19 it was 5 to 10 µM.

For the molecule `COc1ccc(Nc2ccc(C(=O)c3c[nH]c4ncnc(N[C@@H](C)c5ccc(F)cc5)c34)c(F)n2)cn1` [Compound P-4072, [2-fluoro-6-[(6-methoxy-3-pyridyl)amino]-3-pyridyl]-[4-[[(1S)-1-(4-fluorophenyl)ethyl]amino]-7H-pyrrolo[2,3-d]pyrimidin-5-yl]methanone], the IC50 is less than 0.01 µM on BCR-NTRK1 BaF3 cells and less than 10 µM at CYP2C19.

With `O=C(c1ccc(Nc2ccc(C3CC3)nc2)nc1F)c1c[nH]c2ncnc(NCC(F)(F)F)c12` [Compound P-4090, [6-[(6-cyclopropyl-3-pyridyl)amino]-2-fluoro-3-pyridyl]-[4-(2,2,2-trifluoroethylamino)-7H-pyrrolo[2,3-d]pyrimidin-5-yl]methanone], the figures for the IC50 at BCR-NTRK1 BaF3 cells and at CYP2C19 were less than 0.1 µM and greater than 10 µM, respectively.

For `COc1ccc(Nc2ccc(C(=O)c3c[nH]c4ncnc(NC(C)(C)C)c34)c(F)n2)cn1` [Compound P-4055, [4-(tert-butylamino)-7H-pyrrolo[2,3-d]pyrimidin-5-yl]-[2-fluoro-6-[(6-methoxy-3-pyridyl)amino]-3-pyridyl]methanone], the IC50 on BCR-NTRK1 BaF3 cells was less than 1 µM; on CYP2C19 it was less than 10 µM.

Consider `COc1cncc(Nc2ccc(C(=O)c3c[nH]c4ncnc(NCC(F)(F)F)c34)c(F)n2)c1` [Compound P-4103, [2-fluoro-6-[(5-methoxy-3-pyridyl)amino]-3-pyridyl]-[4-(2,2,2-trifluoroethylamino)-7H-pyrrolo[2,3-d]pyrimidin-5-yl]methanone], for which the IC50 at BCR-NTRK1 BaF3 cells is less than 1 µM; on CYP2C19 it was greater than 10 µM.

As for `CNc1ncnc2[nH]cc(C(=O)c3ccc(Nc4ccc(OC)nc4)nc3F)c12` [Compound P-4083, [2-fluoro-6-[(6-methoxy-3-pyridyl)amino]-3-pyridyl]-[4-(methylamino)-7H-pyrrolo[2,3-d]pyrimidin-5-yl]methanone], the IC50 was less than 0.01 µM on BCR-NTRK1 BaF3 cells and greater than 10 µM at CYP2C19.

Regarding `CC1CCC(Nc2ncc(Cc3c[nH]c4ncc(Cl)cc34)cn2)CC1` (stereo not drawn) [Compound P-3009, [5-(5-Chloro-1H-pyrrolo[2,3-b]pyridin-3-ylmethyl)-pyrimidin-2-yl]-(4-methyl-cyclohexyl)-amine], the results for the IC50 on BCR-NTRK1 BaF3 cells and at CYP2C19 were greater than 10 µM and less than 5 µM, respectively.

Consider `CNc1ncnc2[nH]cc(C(=O)c3ccc(NC4CCC(F)(F)CC4)nc3Cl)c12` [Compound P-4058, [2-chloro-6-[(4,4-difluorocyclohexyl)amino]-3-pyridyl]-[4-(methylamino)-7H-pyrrolo[2,3-d]pyrimidin-5-yl]methanone], for which the IC50 is less than 1 µM on BCR-NTRK1 BaF3 cells and greater than 10 µM at CYP2C19.

Take `CCc1ccc(Nc2ccc(C(=O)c3c[nH]c4ncnc(NC5CCC5)c34)c(F)n2)cn1` [Compound P-4095, [4-(cyclobutylamino)-7H-pyrrolo[2,3-d]pyrimidin-5-yl]-[6-[(6-ethyl-3-pyridyl)amino]-2-fluoro-3-pyridyl]methanone]: the IC50 on BCR-NTRK1 BaF3 cells was less than 0.01 µM; on CYP2C19, greater than 10 µM.

As for `COc1ccc(Nc2ccc(C(=O)c3c[nH]c4ncnc(N5CCOCC5)c34)c(F)n2)cn1` [Compound P-4070, [2-fluoro-6-[(6-methoxy-3-pyridyl)amino]-3-pyridyl]-(4-morpholino-7H-pyrrolo[2,3-d]pyrimidin-5-yl)methanone], the IC50 at BCR-NTRK1 BaF3 cells is greater than 1 µM; on CYP2C19, greater than 10 µM.

Consider `O=C(c1ccc(NC2CCC(F)(F)CC2)nc1Cl)c1c[nH]c2ncnc(NC3CC3)c12` [Compound P-4059, [2-chloro-6-[(4,4-difluorocyclohexyl)amino]-3-pyridyl]-[4-(cyclopropylamino)-7H-pyrrolo[2,3-d]pyrimidin-5-yl]methanone], for which the results for the IC50 at BCR-NTRK1 BaF3 cells and on CYP2C19 were less than 1 µM and greater than 10 µM, respectively.

With `CNc1ncnc2[nH]cc(C(=O)c3ccc(Nc4ccc(C(F)(F)F)nc4)nc3F)c12` [Compound P-4092, [2-fluoro-6-[[6-(trifluoromethyl)-3-pyridyl]amino]-3-pyridyl]-[4-(methylamino)-7H-pyrrolo[2,3-d]pyrimidin-5-yl]methanone], the IC50 on BCR-NTRK1 BaF3 cells is less than 0.01 µM; on CYP2C19, less than 5 µM.

Regarding `CCc1ccc(Nc2ccc(C(=O)c3c[nH]c4ncnc(NC5CCCC5)c34)c(F)n2)cn1` [Compound P-4099, [4-(cyclopentylamino)-7H-pyrrolo[2,3-d]pyrimidin-5-yl]-[6-[(6-ethyl-3-pyridyl)amino]-2-fluoro-3-pyridyl]methanone], the IC50 on BCR-NTRK1 BaF3 cells is less than 0.01 µM; on CYP2C19 it was less than 5 µM.

The values are drawn from patent publication US8901118B2, “Compounds and methods for kinase modulation, and indications therefor” (Plexxikon Inc., priority 2010, dated 2014).
